The text below walks through data of ChEMBL document CHEMBL1201862, “PubChem BioAssay data set” (2004).

Structures are written as SMILES.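 In this assay, cells in 96-well plates receive the compound at five concentrations for 48 hours. Endpoints are linearly interpolated between the surrounding concentrations. At the GI50, growth is halved.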 Active and inactive are the calls of the source. Rule as the data show it: active = GI50 up to about 1.1 µM and inactive = higher.

Test systems include HCC 2998; HOP-62; HOP-92; NCI-H460; SK-OV-3; EKVX; UACC-62; SF-268; HL-60; T47D; SW-620; NCI-H226; SN12C; SK-MEL-2; CAKI-1; OVCAR-4; IGROV-1; M14; RXF 393.
What all share (experiment): NCI-60 cell line screen, 48 h

Turning to `CCCC(=O)Nc1ncnc2c1ncn2C1OC2COP(=O)(O)OC2C1OC(=O)CCC` (stereo not given), the GI50 in the assay on HCC 2998 is > 100 µM (inactive); in the assay with HOP-62, > 100 µM (inactive); in the assay on HOP-92, > 1000 µM (inactive); with NCI-H460, > 100 µM (inactive); in the assay with SK-OV-3, > 100 µM (inactive); in the assay on EKVX it was > 100 µM (inactive). Besides, the GI50 with UACC-62 was > 100 µM (inactive); in the assay with SF-268 it was > 100 µM (inactive); in the assay on HL-60, 180 µM (inactive); with T47D, > 100 µM (inactive); in the assay on SW-620 it was > 100 µM (inactive); in the assay with NCI-H226, > 100 µM (inactive). In addition, the GI50 in the assay with SN12C is > 100 µM (inactive); with SK-MEL-2 it was > 100 µM (inactive); with CAKI-1 it was > 100 µM (inactive); in the assay on OVCAR-4, > 100 µM (inactive); in the assay on IGROV-1, 22.5 µM (inactive); in the assay with M14, > 100 µM (inactive).

Regarding `CC(=O)Nc1nc(O)c2nc(C=O)cnc2n1`, the GI50 in the assay on HOP-62, in the assay on HOP-92, with NCI-H460, in the assay with SK-OV-3, with EKVX and with UACC-62 was > 100 µM (inactive) throughout. The GI50 in the assay on SF-268, in the assay with HL-60, in the assay with T47D, in the assay on SW-620, with NCI-H226 and with SN12C was > 100 µM (inactive) throughout. The GI50 in the assay on SK-MEL-2, in the assay with CAKI-1, in the assay on RXF 393, in the assay on OVCAR-4, in the assay on IGROV-1 and in the assay on M14 was > 100 µM (inactive) throughout.

For the molecule `CCOC(=O)/C(C(=O)c1ccc([N+](=O)[O-])cc1)=C(\NS(=O)(=O)c1cc(C)c(Cl)cc1[S-])[n+]1ccc(N(C)C)cc1`, the GI50 in the assay on HOP-62 was 29.4 µM (inactive); in the assay with HOP-92, 3.27 µM (inactive); in the assay on NCI-H460, 34.9 µM (inactive); in the assay with SK-OV-3, 25.8 µM (inactive); in the assay on UACC-62 it was 49.3 µM (inactive); in the assay with SF-268, 37.1 µM (inactive). Moreover, the GI50 in the assay on HL-60 is 30.1 µM (inactive); in the assay with T47D it was 50.8 µM (inactive); in the assay with NCI-H226, 51.8 µM (inactive); in the assay with SN12C it was 61.7 µM (inactive); in the assay on SK-MEL-2, 3.83 µM (inactive); in the assay with CAKI-1, 35.1 µM (inactive). In addition, the GI50 is 64.1 µM (inactive) in the assay on RXF 393, 32.9 µM (inactive) in the assay with OVCAR-4, 45.3 µM (inactive) in the assay with IGROV-1 and 31.1 µM (inactive) in the assay on M14.

Consider `CC1CN=C(N(Cc2ccccc2)C(=O)Nc2ccc(Cl)c(Cl)c2)S1` (stereo not given), for which the GI50 with HCC 2998 is > 10 µM (inactive); in the assay on HOP-62, 87.5 µM (inactive); in the assay on HOP-92, 21.6 µM (inactive); in the assay on NCI-H460 it was 35.7 µM (inactive); in the assay with SK-OV-3, 52.4 µM (inactive); in the assay with EKVX it was 53.3 µM (inactive). Also, the GI50 with SF-268 is 62.7 µM (inactive); in the assay with HL-60, > 10 µM (inactive); in the assay on T47D, 16.9 µM (inactive); with SW-620 it was 43.5 µM (inactive); in the assay with SN12C it was 17.2 µM (inactive); with SK-MEL-2, 23.4 µM (inactive). Also, the GI50 in the assay with CAKI-1 is 36.1 µM (inactive); in the assay on OVCAR-4 it was 61.8 µM (inactive); in the assay on IGROV-1, 32.5 µM (inactive); with M14, 18.3 µM (inactive).

Take `N#CC(c1cc(Cl)ncn1)c1nc2ccccc2s1` (stereo not given): the GI50 in the assay on HOP-62 is 14.1 µM (inactive); with HOP-92, 3.57 µM (inactive); with NCI-H460, 4.27 µM (inactive); in the assay with SK-OV-3, 14.8 µM (inactive); in the assay with EKVX it was 20.9 µM (inactive); in the assay on SF-268, 5.25 µM (inactive). Besides, the GI50 in the assay with T47D was 2.67 µM (inactive); with SW-620, 4.62 µM (inactive); in the assay with NCI-H226, 25.8 µM (inactive); with SN12C it was 2.61 µM (inactive); in the assay with CAKI-1, 18.6 µM (inactive); in the assay on RXF 393, 16.1 µM (inactive). Besides, the GI50 was 6.46 µM (inactive) in the assay on OVCAR-4, 6.92 µM (inactive) with IGROV-1 and 17.1 µM (inactive) in the assay on M14.

Turning to `Cc1cc(CCC(=O)NCCNc2c3ccccc3nc3ccccc23)cc(C)c1O[Si](C)(C)C(C)(C)C`, the GI50 in the assay with HOP-62 is 1.51 µM (inactive); in the assay on HOP-92, 1.53 µM (inactive); with NCI-H460 it was 0.762 µM (active); in the assay with SK-OV-3, 1.61 µM (inactive); in the assay on EKVX, 1.6 µM (inactive); with UACC-62, 14.5 µM (inactive). Further, the GI50 was 1.52 µM (inactive) in the assay with HL-60; 0.351 µM (active) in the assay with T47D; 0.215 µM (active) in the assay on SW-620; 17.1 µM (inactive) in the assay with NCI-H226; 15.5 µM (inactive) with SN12C; 1.91 µM (inactive) in the assay with SK-MEL-2. Besides, the GI50 in the assay on RXF 393 is 1.5 µM (inactive); in the assay with OVCAR-4, 1.32 µM (inactive); with IGROV-1 it was 1.76 µM (inactive); in the assay with M14, 1.66 µM (inactive).

Regarding `O=C(CCCN1CCC2(CC1)CC(=O)N(N1CCCCCC1)C2=O)c1ccccc1`, the GI50 with HOP-62, in the assay on HOP-92, with SK-OV-3, in the assay with EKVX, with UACC-62 and with SF-268 was > 100 µM (inactive) in each case. The GI50 in the assay with HL-60, in the assay with T47D, in the assay on NCI-H226, in the assay on SN12C, in the assay on SK-MEL-2 and with CAKI-1 was > 100 µM (inactive) throughout. The GI50 in the assay on RXF 393, in the assay with OVCAR-4, in the assay with IGROV-1 and in the assay with M14 was > 100 µM (inactive) throughout.

On to `CS(=O)(=O)C[S+]([O-])C[S+]([O-])C[S+]([O-])CC(NC(=O)CCC(N)C(=O)O)C(=O)O` (stereo not given), for which the GI50 in the assay on HCC 2998, with HOP-62, in the assay with HOP-92, in the assay on NCI-H460, in the assay with EKVX and in the assay with UACC-62 was > 100 µM (inactive) throughout. Moreover, the GI50 with SF-268 was > 100 µM (inactive); in the assay on HL-60 it was 32.8 µM (inactive); in the assay on T47D, > 100 µM (inactive); with SW-620 it was > 100 µM (inactive); with SN12C, > 100 µM (inactive); in the assay on SK-MEL-2, > 100 µM (inactive). Also, the GI50 in the assay on CAKI-1, with OVCAR-4, in the assay on IGROV-1 and with M14 was > 100 µM (inactive) each time.

Take `Cc1ccc2nc(-c3ccc(-n4c(C)nc(=O)c(-c5ccc(F)cc5)c4C)cc3)sc2c1`: the GI50 in the assay with HOP-62 is 22 µM (inactive); with HOP-92 it was 17.6 µM (inactive); in the assay on SK-OV-3 it was 15.1 µM (inactive); in the assay on EKVX, 13.5 µM (inactive); in the assay on SF-268, 20.3 µM (inactive); in the assay with HL-60, 11.4 µM (inactive). The GI50 was 3.3 µM (inactive) in the assay with T47D; 21.6 µM (inactive) with SW-620; 17.5 µM (inactive) in the assay on NCI-H226; 15 µM (inactive) in the assay with SN12C; 19.1 µM (inactive) in the assay with SK-MEL-2; 17.8 µM (inactive) with CAKI-1. Besides, the GI50 in the assay on RXF 393 is 9.75 µM (inactive); in the assay with OVCAR-4, 17.6 µM (inactive); in the assay on IGROV-1 it was 14.2 µM (inactive); in the assay on M14, 12.7 µM (inactive).

With `CC(=S)NC1C(Oc2ccc3c(C)cc(=O)oc3c2)OC(CO)C(O)C1O` (stereo not given), the GI50 in the assay with HOP-62, in the assay on HOP-92, in the assay on NCI-H460, in the assay with SK-OV-3, with EKVX and in the assay on UACC-62 was > 100 µM (inactive) each time. The GI50 in the assay with HL-60, in the assay with T47D, in the assay with SW-620, with NCI-H226, with SN12C and in the assay on SK-MEL-2 was > 100 µM (inactive) in each case. For the same molecule, the GI50 with CAKI-1, in the assay with RXF 393, in the assay on OVCAR-4 and in the assay on IGROV-1 was > 100 µM (inactive) each time.

On to `CC1N[B@@-](C)(c2ccc(C(F)(F)F)cc2)OC1c1ccccc1` (stereo not given in full), for which the GI50 with HCC 2998 is > 100 µM (inactive); in the assay with HOP-62, > 100 µM (inactive); in the assay with HOP-92, 20.4 µM (inactive); in the assay on NCI-H460, > 100 µM (inactive); in the assay on SK-OV-3, > 100 µM (inactive); in the assay with EKVX, 41.4 µM (inactive). The GI50 with UACC-62 was > 100 µM (inactive); in the assay with SF-268, > 100 µM (inactive); in the assay with HL-60, 12.7 µM (inactive); in the assay on T47D, > 100 µM (inactive); in the assay on SW-620, > 100 µM (inactive); with NCI-H226, > 100 µM (inactive). For the same molecule, the GI50 with SN12C, with OVCAR-4, in the assay on IGROV-1 and in the assay with M14 was > 100 µM (inactive) each time.

`O=C1Nc2ccc(Br)cc2/C1=N/NC(=S)Nc1ccc([N+](=O)[O-])cc1`: the GI50 with HOP-62 was 11.4 µM (inactive); in the assay on HOP-92 it was 9.77 µM (inactive); in the assay on NCI-H460, 5.47 µM (inactive); with SK-OV-3 it was 12.7 µM (inactive); in the assay with UACC-62, 5.5 µM (inactive); with SF-268 it was 9.04 µM (inactive). In addition, the GI50 with HL-60 is 1.75 µM (inactive); in the assay on T47D, 7.45 µM (inactive); in the assay on SW-620, 6.81 µM (inactive); in the assay with NCI-H226, 15.9 µM (inactive); in the assay on SN12C, 8.02 µM (inactive); in the assay on SK-MEL-2, 13.7 µM (inactive). Besides, the GI50 with CAKI-1 was 4.06 µM (inactive); with RXF 393, 11.8 µM (inactive); in the assay on OVCAR-4, 6.11 µM (inactive); with IGROV-1, 5.08 µM (inactive).
